Experimental data as given in PubChem BioAssay (NCI).
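Cultured in 96-well plates, cells were exposed to test compound for 48 hours across five concentrations. TGI denotes the concentration required for complete inhibition of growth.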

Columns and labels:
Assay in all cases: NCI tumour cell line growth inhibition, 48 h
HCT-116 colon = tested on: HCT-116 colon
KM12 colon = tested on: KM12 colon
A498 renal = tested on: A498 renal
SK-OV-3 ovarian = tested on: SK-OV-3 ovarian
SN12C renal = tested on: SN12C renal
HCT-15 colon = tested on: HCT-15 colon
T-47D breast = tested on: T-47D breast
SF-295 CNS = tested on: SF-295 CNS
CAKI-1 renal = tested on: CAKI-1 renal
MDA-MB-231 breast = tested on: MDA-MB-231 breast
U251 CNS = tested on: U251 CNS
MALME-3M melanoma = tested on: MALME-3M melanoma
MCF7 breast = tested on: MCF7 breast
CCRF-CEM leukemia = tested on: CCRF-CEM leukemia
ACHN renal = tested on: ACHN renal
TK-10 renal = tested on: TK-10 renal
SK-MEL-5 melanoma = tested on: SK-MEL-5 melanoma
HS 578T breast = tested on: HS 578T breast
LOX IMVI melanoma = tested on: LOX IMVI melanoma
HL-60(TB) leukemia = tested on: HL-60(TB) leukemia
SNB-19 CNS = tested on: SNB-19 CNS
NCI/ADR-RES ovarian = tested on: NCI/ADR-RES ovarian
BT-549 breast = tested on: BT-549 breast
DU-145 prostate = tested on: DU-145 prostate
RXF 393 renal = tested on: RXF 393 renal
SR leukemia = tested on: SR leukemia
UACC-62 melanoma = tested on: UACC-62 melanoma
K-562 leukemia = tested on: K-562 leukemia
OVCAR-3 ovarian = tested on: OVCAR-3 ovarian
MDA-MB-435 = tested on: MDA-MB-435
UO-31 renal = tested on: UO-31 renal
MDA-N = tested on: MDA-N
M14 melanoma = tested on: M14 melanoma
HT29 colon = tested on: HT29 colon
SNB-75 CNS = tested on: SNB-75 CNS
786-0 renal = tested on: 786-0 renal
SF-268 CNS = tested on: SF-268 CNS
SF-539 CNS = tested on: SF-539 CNS
PC-3 prostate = tested on: PC-3 prostate
NCI-H23 lung = tested on: NCI-H23 lung
IGROV1 ovarian = tested on: IGROV1 ovarian
COLO 205 colon = tested on: COLO 205 colon
A549 NSCLC = tested on: A549 NSCLC
NCI-H460 lung = tested on: NCI-H460 lung
OVCAR-5 ovarian = tested on: OVCAR-5 ovarian
MOLT-4 leukemia = tested on: MOLT-4 leukemia
RPMI-8226 leukemia = tested on: RPMI-8226 leukemia
EKVX NSCLC = tested on: EKVX NSCLC
UACC-257 melanoma = tested on: UACC-257 melanoma
OVCAR-8 ovarian = tested on: OVCAR-8 ovarian
HOP-92 NSCLC = tested on: HOP-92 NSCLC
HCC-2998 colon = tested on: HCC-2998 colon
NCI-H226 lung = tested on: NCI-H226 lung
SK-MEL-28 melanoma = tested on: SK-MEL-28 melanoma
OVCAR-4 ovarian = tested on: OVCAR-4 ovarian
SW-620 colon = tested on: SW-620 colon
NCI-H522 lung = tested on: NCI-H522 lung
SK-MEL-2 melanoma = tested on: SK-MEL-2 melanoma
HOP-62 NSCLC = tested on: HOP-62 NSCLC

Cn1c(=O)c2c(nc3sc4nc5ccccc5nc4n32)n(C)c1=O
TGI (HCT-116 colon): > 100 µM | TGI (KM12 colon): > 100 µM | TGI (A498 renal): > 100 µM | TGI (SK-OV-3 ovarian): > 100 µM | TGI (SN12C renal): > 100 µM | TGI (HCT-15 colon): > 100 µM | TGI (T-47D breast): > 100 µM | TGI (SF-295 CNS): > 100 µM | TGI (CAKI-1 renal): > 100 µM | TGI (MDA-MB-231 breast): > 100 µM | TGI (U251 CNS): > 100 µM | TGI (MALME-3M melanoma): > 100 µM | TGI (MCF7 breast): > 100 µM | TGI (CCRF-CEM leukemia): > 100 µM | TGI (ACHN renal): > 100 µM | TGI (TK-10 renal): > 100 µM | TGI (SK-MEL-5 melanoma): > 100 µM | TGI (HS 578T breast): > 100 µM | TGI (LOX IMVI melanoma): > 100 µM | TGI (HL-60(TB) leukemia): > 100 µM | TGI (SNB-19 CNS): > 100 µM | TGI (NCI/ADR-RES ovarian): > 100 µM | TGI (BT-549 breast): > 100 µM | TGI (DU-145 prostate): > 100 µM | TGI (RXF 393 renal): > 100 µM | TGI (SR leukemia): > 100 µM | TGI (UACC-62 melanoma): > 100 µM | TGI (K-562 leukemia): > 100 µM | TGI (OVCAR-3 ovarian): > 100 µM | TGI (MDA-MB-435): > 100 µM | TGI (UO-31 renal): > 100 µM | TGI (MDA-N): > 100 µM | TGI (M14 melanoma): > 100 µM | TGI (HT29 colon): > 100 µM | TGI (SNB-75 CNS): > 100 µM | TGI (786-0 renal): > 100 µM | TGI (SF-268 CNS): > 100 µM | TGI (SF-539 CNS): > 100 µM | TGI (PC-3 prostate): > 100 µM | TGI (NCI-H23 lung): > 100 µM | TGI (IGROV1 ovarian): > 100 µM | TGI (COLO 205 colon): > 100 µM | TGI (A549 NSCLC): > 100 µM | TGI (NCI-H460 lung): > 100 µM | TGI (OVCAR-5 ovarian): > 100 µM | TGI (MOLT-4 leukemia): > 100 µM | TGI (RPMI-8226 leukemia): > 100 µM | TGI (EKVX NSCLC): > 100 µM | TGI (UACC-257 melanoma): > 100 µM | TGI (OVCAR-8 ovarian): > 100 µM | TGI (HOP-92 NSCLC): > 100 µM | TGI (HCC-2998 colon): > 100 µM | TGI (NCI-H226 lung): > 100 µM

O=C1c2ccccc2CCC1C(O)(C(F)(F)F)C(F)(F)F (stereo not given)
TGI (SK-MEL-28 melanoma): > 100 µM | TGI (HCT-116 colon): > 100 µM | TGI (KM12 colon): > 100 µM | TGI (A498 renal): > 100 µM | TGI (OVCAR-4 ovarian): > 100 µM | TGI (SK-OV-3 ovarian): > 100 µM | TGI (HCT-15 colon): > 100 µM | TGI (T-47D breast): > 100 µM | TGI (SF-295 CNS): > 100 µM | TGI (CAKI-1 renal): > 100 µM | TGI (MDA-MB-231 breast): > 100 µM | TGI (U251 CNS): > 100 µM | TGI (MALME-3M melanoma): > 100 µM | TGI (MCF7 breast): > 100 µM | TGI (CCRF-CEM leukemia): > 100 µM | TGI (ACHN renal): > 100 µM | TGI (TK-10 renal): > 100 µM | TGI (SK-MEL-5 melanoma): > 100 µM | TGI (SW-620 colon): > 100 µM | TGI (HS 578T breast): > 100 µM | TGI (LOX IMVI melanoma): > 100 µM | TGI (SNB-19 CNS): > 100 µM | TGI (NCI/ADR-RES ovarian): > 100 µM | TGI (BT-549 breast): > 100 µM | TGI (DU-145 prostate): > 100 µM | TGI (RXF 393 renal): > 100 µM | TGI (NCI-H522 lung): > 100 µM | TGI (SR leukemia): > 100 µM | TGI (UACC-62 melanoma): > 100 µM | TGI (K-562 leukemia): > 100 µM | TGI (OVCAR-3 ovarian): > 100 µM | TGI (MDA-MB-435): > 100 µM | TGI (UO-31 renal): > 100 µM | TGI (MDA-N): > 100 µM | TGI (M14 melanoma): > 100 µM | TGI (HT29 colon): > 100 µM | TGI (SNB-75 CNS): > 100 µM | TGI (786-0 renal): > 100 µM | TGI (SF-539 CNS): > 100 µM | TGI (PC-3 prostate): > 100 µM | TGI (NCI-H23 lung): > 100 µM | TGI (IGROV1 ovarian): > 100 µM | TGI (COLO 205 colon): > 100 µM | TGI (A549 NSCLC): > 100 µM | TGI (NCI-H460 lung): > 100 µM | TGI (OVCAR-5 ovarian): > 100 µM | TGI (MOLT-4 leukemia): > 100 µM | TGI (RPMI-8226 leukemia): > 100 µM | TGI (EKVX NSCLC): > 100 µM | TGI (UACC-257 melanoma): > 100 µM | TGI (OVCAR-8 ovarian): > 100 µM | TGI (HOP-92 NSCLC): > 100 µM | TGI (SK-MEL-2 melanoma): > 100 µM | TGI (HCC-2998 colon): > 100 µM | TGI (NCI-H226 lung): > 100 µM

COc1cc(OC)cc(C(=O)NC2=C(Cl)C(=O)c3ccccc3C2=O)c1
TGI (SK-MEL-28 melanoma): 19 µM | TGI (HCT-116 colon): 2.35 µM | TGI (KM12 colon): 10.4 µM | TGI (A498 renal): 27.1 µM | TGI (OVCAR-4 ovarian): 6.01 µM | TGI (SK-OV-3 ovarian): 11.2 µM | TGI (SN12C renal): 13.1 µM | TGI (HCT-15 colon): 10.4 µM | TGI (T-47D breast): 3.51 µM | TGI (SF-295 CNS): 9.91 µM | TGI (CAKI-1 renal): 17.7 µM | TGI (MDA-MB-231 breast): 29.2 µM | TGI (U251 CNS): 9.42 µM | TGI (MALME-3M melanoma): 3.31 µM | TGI (MCF7 breast): 8.73 µM | TGI (CCRF-CEM leukemia): 3.99 µM | TGI (ACHN renal): 2.83 µM | TGI (TK-10 renal): 7.68 µM | TGI (SK-MEL-5 melanoma): 5.35 µM | TGI (SW-620 colon): 2.65 µM | TGI (HS 578T breast): 24.4 µM | TGI (LOX IMVI melanoma): 5.14 µM | TGI (SNB-19 CNS): 21.9 µM | TGI (NCI/ADR-RES ovarian): 11.9 µM | TGI (BT-549 breast): 9.22 µM | TGI (DU-145 prostate): 16.8 µM | TGI (RXF 393 renal): 4.09 µM | TGI (NCI-H522 lung): 2.47 µM | TGI (SR leukemia): > 23.1 µM | TGI (UACC-62 melanoma): 1.22 µM | TGI (K-562 leukemia): 4.01 µM | TGI (OVCAR-3 ovarian): 5.54 µM | TGI (MDA-MB-435): 4.48 µM | TGI (UO-31 renal): 9.42 µM | TGI (MDA-N): 5.13 µM | TGI (M14 melanoma): 6.67 µM | TGI (HT29 colon): 10.9 µM | TGI (SNB-75 CNS): 12.3 µM | TGI (SF-268 CNS): 12.8 µM | TGI (SF-539 CNS): 18.5 µM | TGI (PC-3 prostate): 10.9 µM | TGI (NCI-H23 lung): 7.93 µM | TGI (IGROV1 ovarian): 12.9 µM | TGI (COLO 205 colon): 15.6 µM | TGI (A549 NSCLC): > 38.3 µM | TGI (NCI-H460 lung): 9.24 µM | TGI (OVCAR-5 ovarian): 16.6 µM | TGI (MOLT-4 leukemia): 6.12 µM | TGI (RPMI-8226 leukemia): > 21.7 µM | TGI (EKVX NSCLC): > 39.6 µM | TGI (UACC-257 melanoma): 6.2 µM | TGI (OVCAR-8 ovarian): 17.6 µM | TGI (HOP-92 NSCLC): 2.89 µM | TGI (SK-MEL-2 melanoma): 4.01 µM | TGI (HCC-2998 colon): 13.8 µM | TGI (HOP-62 NSCLC): 27.8 µM | TGI (NCI-H226 lung): 12 µM
